# Assay results from ChEMBL document CHEMBL1125240, “Synthesis and biological activity of 5,11-methylenetetrahydro-5- deazahomofolic acid” (J Med Chem, 1991).
# Experiments:
# [1] = target: T1, Trifunctional purine biosynthetic protein adenosine-3 (Homo sapiens, UniProt P22102); assay: Compound was evaluated for the ability to inhibit Glycinamide ribonucleotide formyltransferase from Manca cells.; assay type: cell-based
# T1 sequence (P22102 whole entry): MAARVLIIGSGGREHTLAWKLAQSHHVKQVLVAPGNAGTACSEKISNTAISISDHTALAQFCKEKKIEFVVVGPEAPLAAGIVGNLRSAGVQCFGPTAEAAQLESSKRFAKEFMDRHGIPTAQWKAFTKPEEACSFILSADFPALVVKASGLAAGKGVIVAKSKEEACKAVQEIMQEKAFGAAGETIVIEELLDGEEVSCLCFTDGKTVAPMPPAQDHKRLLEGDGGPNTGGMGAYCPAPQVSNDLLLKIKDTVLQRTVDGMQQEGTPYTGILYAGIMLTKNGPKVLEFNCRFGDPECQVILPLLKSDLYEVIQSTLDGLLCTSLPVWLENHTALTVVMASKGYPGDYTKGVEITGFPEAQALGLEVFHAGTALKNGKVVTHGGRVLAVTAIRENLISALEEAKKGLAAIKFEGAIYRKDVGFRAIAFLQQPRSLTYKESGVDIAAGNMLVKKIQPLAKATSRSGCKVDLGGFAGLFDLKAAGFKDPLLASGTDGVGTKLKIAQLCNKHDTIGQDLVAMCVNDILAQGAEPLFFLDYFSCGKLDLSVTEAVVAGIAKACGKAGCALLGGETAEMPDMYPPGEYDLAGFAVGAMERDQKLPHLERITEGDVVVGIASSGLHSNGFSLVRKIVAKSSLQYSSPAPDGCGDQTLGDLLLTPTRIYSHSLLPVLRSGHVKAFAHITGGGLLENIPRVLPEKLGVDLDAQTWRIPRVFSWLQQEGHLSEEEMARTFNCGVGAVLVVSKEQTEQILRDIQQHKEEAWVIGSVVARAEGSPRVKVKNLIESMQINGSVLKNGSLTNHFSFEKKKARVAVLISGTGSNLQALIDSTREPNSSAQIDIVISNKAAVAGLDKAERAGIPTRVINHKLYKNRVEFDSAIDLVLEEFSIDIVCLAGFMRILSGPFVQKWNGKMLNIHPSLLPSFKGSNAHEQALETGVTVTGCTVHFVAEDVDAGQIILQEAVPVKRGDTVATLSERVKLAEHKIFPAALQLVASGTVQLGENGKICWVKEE
# Manca = assay: Compound was evaluated for the ability to inhibit growth of Manca human lymphoma cells.; assay type: functional, cell-based
# Thymidylate synthase [2] = target: T2, Thymidylate synthase (Lactobacillus casei, UniProt P00469); assay: Compound was evaluated for the ability to inhibit thymidylate synthase from Lactobacillus casei cells.; design: species or system Lacticaseibacillus casei
# T2 sequence (P00469 whole entry): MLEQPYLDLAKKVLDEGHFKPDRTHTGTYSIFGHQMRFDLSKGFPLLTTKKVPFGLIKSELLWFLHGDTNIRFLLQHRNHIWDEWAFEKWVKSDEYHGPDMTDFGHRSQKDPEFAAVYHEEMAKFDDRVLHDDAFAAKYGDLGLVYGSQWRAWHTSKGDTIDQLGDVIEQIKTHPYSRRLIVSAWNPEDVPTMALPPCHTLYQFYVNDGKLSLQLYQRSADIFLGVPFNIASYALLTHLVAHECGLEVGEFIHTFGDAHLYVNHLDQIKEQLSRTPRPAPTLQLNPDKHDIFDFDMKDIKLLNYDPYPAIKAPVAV
# Thymidylate synthase [3] = target: Thymidylate synthase (Homo sapiens, UniProt P04818); assay: Compound was evaluated for the ability to inhibit thymidylate synthase from Manca cells.; assay type: cell-based
# Sequence of Thymidylate synthase (Homo sapiens, UniProt P04818) (P04818 whole entry): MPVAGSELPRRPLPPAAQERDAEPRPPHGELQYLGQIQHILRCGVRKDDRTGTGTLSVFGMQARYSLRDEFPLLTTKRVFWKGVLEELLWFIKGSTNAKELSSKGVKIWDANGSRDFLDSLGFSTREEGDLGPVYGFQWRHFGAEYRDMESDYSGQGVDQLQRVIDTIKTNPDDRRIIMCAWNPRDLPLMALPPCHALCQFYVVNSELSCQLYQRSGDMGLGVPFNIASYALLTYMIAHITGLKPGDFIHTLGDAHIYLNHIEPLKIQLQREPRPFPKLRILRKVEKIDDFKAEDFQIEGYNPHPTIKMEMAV
smiles,measurement,setting,value
Nc1nc2c(c(=O)[nH]1)C1CN(c3ccc(C(=O)NC(CCC(=O)O)C(=O)O)cc3)CCC1CN2 (centres undefined),IC50,[1],> 20 µM
same,IC50,Manca,> 14 µM
same,IC50,Thymidylate synthase [2],> 100 µM
same,IC50,Thymidylate synthase [3],> 200 µM
